The values that follow come from patent US11529350B2, “Tyrosine kinase non-receptor 1 (TNK1) inhibitors and uses thereof” (Sumitomo Pharma Oncology, Inc., priority 2019, dated 2022).

A word on the IC50: it is the concentration that inhibits the measured activity by half.

The structures appear in SMILES notation.

Assay [1] concerns the target T1, TNK1 (Homo sapiens, UniProt Q13470).
T1 sequence (Q13470 1-666): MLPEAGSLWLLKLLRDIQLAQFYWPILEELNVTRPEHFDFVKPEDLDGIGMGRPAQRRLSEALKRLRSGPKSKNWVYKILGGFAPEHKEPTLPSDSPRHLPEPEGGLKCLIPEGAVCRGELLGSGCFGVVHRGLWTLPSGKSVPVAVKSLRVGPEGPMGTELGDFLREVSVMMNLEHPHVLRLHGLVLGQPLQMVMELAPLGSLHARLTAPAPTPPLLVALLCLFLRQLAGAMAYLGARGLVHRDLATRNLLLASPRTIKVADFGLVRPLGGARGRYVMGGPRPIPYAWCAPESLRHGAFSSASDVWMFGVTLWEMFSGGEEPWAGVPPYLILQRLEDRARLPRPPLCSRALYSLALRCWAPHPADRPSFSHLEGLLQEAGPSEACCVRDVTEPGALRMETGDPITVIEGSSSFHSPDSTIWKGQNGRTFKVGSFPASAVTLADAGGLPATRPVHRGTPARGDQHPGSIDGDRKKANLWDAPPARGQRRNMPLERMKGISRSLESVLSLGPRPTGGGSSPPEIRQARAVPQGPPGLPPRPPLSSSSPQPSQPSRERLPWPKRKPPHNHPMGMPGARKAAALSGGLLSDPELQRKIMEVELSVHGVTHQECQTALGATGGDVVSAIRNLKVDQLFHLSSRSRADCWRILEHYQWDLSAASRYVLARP
The assay is described as follows: TNK1 NanoBRET target engagement assay (HEK293). Type of assay: cell-based. More on the design: host or cells: HEK293. To be noted: HEK293 cells, 2 hours; read-out: NanoBRET TE Assay (HEK293) IC50. The text has this:
The NanoBRET target engagement (TE) assay (Promega, Madison, Wis.) enables the interrogation of the displacement of a tracer compound in the active site of a recombinant kinase by a test compound in the intracellular setting. The assay enables simultaneous testing of permeability, solubility, and kinase inhibition, and tests the specific interaction of test agents with a kinase of interest, here, TNK1. The assay is based on the principle of bioluminescence resonance energy transfer (BRET). In the assay, a plasmid-encoded, luciferase-tagged form of TNK1 is transfected into cells. A tracer compound is tagged with a fluorophore that fluoresces when bound to the TNK1 protein. Readout is luminescence and fluorescence. Test compounds show activity by displacing the tracer, thus disrupting BRET.
Methods: The TNK1 NanoBRET TE assays were performed according to the manufacturer's protocol. Briefly, Nanoluc-TNK1 Fusion Vector (Promega, Madison, Wis., Cat. No. NV2181) was transfected into HEK293 cells in bulk (8×10^6 cells in a T175 flask). Up to 30 hours post-transfection, cells were harvested by trypsinization, resuspended at a concentration of 2×10^5 cells/mL, and seeded in 96-well plates at 85 μL/well. A test compound and the K5 tracer were added to each well, and the cells were incubated for 2 hours. Luminescence ([…]) and fluorescence ([…]) were measured to determine a BRET ratio. IC50 values were determined from the BRET ratios using the Graphpad Prism software (GraphPad Software, San Diego, Calif.).
(In general: In BRET a luciferase serves as donor, and the signal depends on an acceptor being close.)

The subject of assay [2] is phospho-STAT5 in L540 cells. Nature of the assay: In vitro pSTAT5 assay (ELISA) in L540 cells. Type of assay: cell-based. To be noted: Homo sapiens, L-540, 24 hours, normalized to cell viability, read-out: P-STAT5 Assay IC50. How it is done:
The L540 cell line harbors a truncating mutation in the C-terminal regulatory region of the protein. As a consequence, TNK1 in L540 cells is constitutively active in phosphorylating key proteins, including STAT5. In TNK1 wild-type conditions (e.g., K562 CML cells), STAT5 phosphorylation is achieved in a TNK1-independent fashion. As such, reductions in phospho-STAT5 signal specific to the L540 cells are a good readout of TNK1 inhibitor function.
Methods: The in vitro pSTAT5 assay was performed with STAT5 AB (pY964/699) SimpleStep ELISA Kit (Abcam No. ab176656) according to the manufacturer's protocol. Briefly, L540 cells were grown in RPMI1640 media under standard culture conditions (10% FBS with penicillin/streptomycin). To assess test compound effects, cells were plated in 96 well plates (250,000 cells/mL) and allowed to grow overnight. Cells were subsequently treated with varying concentrations of test compound for 24 hours, before being harvested and interrogated with the STAT5 AB (pY964/699) SimpleStep ELISA Kit according to the manufacturer's protocol. Phospho-STAT5 signal was normalized to cell viability, as assessed by the CellTiter-Glo assay (Promega, Cat. No. G7570) on treated cells. TNK1 inhibitor IC50s were determined using Graphpad Prism software on normalized phospho-STAT5 measurements.
(In general: In an ELISA, binding on a coated surface is turned into a signal by an enzyme label.)

Assay [3] has as its system pSTAT5 in L540 xenograft tumors. Nature of the assay: pSTAT5 assay in L540 xenograft tumors (ELISA). Type of assay: in vivo, mouse. The following applies: 10 mg/kg and 25 mg/kg treated arms. The method, then:
Effects of test compounds on phosphorylation of signal transducer and activator of transcription 5 (STAT5) were determined in L540 xenograft tumors.
Methods: Each treatment group included 10 NOD SCID mice. Each mouse was injected with 1×10^7 L540 cells (86% viable at the time of injection), and treated with a single dose of test compound (10 mg/kg or 25 mg/kg) 10 days post L540 cell injection. Tumors were collected 24 hours post treatment, snap frozen, and kept at −80° C. for 24 hours post-harvest. Phosphorylated STAT5 (pSTAT5) levels were measured in the lysates using the STAT5 AB pY694/699 ELISA Kit (Abcam, Cambridge, UK, ab176656). The standard Abcam ELISA protocol was followed, except for 10× more protein than what Abcam recommends was used.

In the case of `COc1cc(N2CCN(C)CC2)c(Cl)cc1Nc1ncc(Cl)c(Nc2cccnc2N2CCNC2=O)n1` [Example No. 21, 1-(3-((5-chloro-2-((5-chloro-2-methoxy-4-(4-methylpiperazin-1-yl)phenyl)amino)pyrimidin-4-yl)amino)pyridin-2-yl)imidazolidin-2-one], the IC50 in assay [1] is < 0.15 µM; in assay [2], < 0.005 µM.
On the same counts, the results for `CN1CCN(c2c(Cl)cc(Nc3ncc(Cl)c(Nc4cccnc4N4CCCC4=O)n3)c3ccccc23)CC1` [Example No. 18, 1-(3-((5-chloro-2-((3-chloro-4-(4-methylpiperazin-1-yl)naphthalen-1-yl)amino)pyrimidin-4-yl)amino)pyridin-2-yl)pyrrolidin-2-one] are < 0.15 µM and < 0.005 µM.
On to `COc1cc(N2CCN(C)CC2)c(C)cc1Nc1ncc(Br)c(Nc2cccnc2N(C)C)n1` [compound 10, 5-bromo-N^4-(2-(dimethylamino)pyridin-3-yl)-N^2-(2-methoxy-5-methyl-4-(4-methylpiperazin-1-yl)phenyl)pyrimidine-2,4-diamine], for which the “dose dependence of p-STAT5 decrease” value in assay [3] is “showed some dose dependence”. For the same molecule, the IC50 in assay [1] was < 0.15 µM; in assay [2], < 0.005 µM.
In the case of `COc1cc(N2CCN(C)CC2)ccc1Nc1ncc(Cl)c(Nc2cccnc2N2CCCC2=O)n1` [compound 2, 1-(3-((5-chloro-2-((2-methoxy-4-(4-methylpiperazin-1-yl)phenyl)amino)pyrimidin-4-yl)amino)pyridin-2-yl)pyrrolidin-2-one], the half-inhibitory concentration (IC50) in assay [1] was < 0.15 µM; in assay [2], < 0.005 µM.
`CCOc1cc(N2CCN(C)CC2)ccc1Nc1ncc(Cl)c(Nc2cccnc2N(C)C)n1` [compound 3, 5-chloro-N^4-(2-(dimethylamino)pyridin-3-yl)-N^2-(2-ethoxy-4-(4-methylpiperazin-1-yl)phenyl)pyrimidine-2,4-diamine]: the half-maximal inhibitory concentration (IC50) in assay [1] was > 1 µM; in assay [2] it was 0.005 to 0.05 µM.
For `CN1CCN(c2ccc(Nc3ncc(Cl)c(Nc4cccnc4N(C)C)n3)cc2)CC1` [compound 5, 5-chloro-N^4-(2-(dimethylamino)pyridin-3-yl)-N^2-(4-(4-methylpiperazin-1-yl)phenyl)pyrimidine-2,4-diamine], in that order: 0.15 to 1 µM and < 0.005 µM.
As for `COc1cc(N2CCN(C)CC2)c(Cl)cc1Nc1ncc(Cl)c(Nc2cccnc2N2CCCC2=O)n1` [Example No. 13, 1-(3-((5-chloro-2-((5-chloro-2-methoxy-4-(4-methylpiperazin-1-yl)phenyl)amino)pyrimidin-4-yl)amino)pyridin-2-yl)pyrrolidin-2-one], the half-maximal inhibitory concentration (IC50) in assay [1] is < 0.15 µM; in assay [2], < 0.005 µM.
On the same counts, the results for `CC(C)Oc1cc(N2CCN(C)CC2)ccc1Nc1ncc(Cl)c(Nc2cccnc2N(C)C)n1` [compound 4, 5-chloro-N^4-(2-(dimethylamino)pyridin-3-yl)-N^2-(2-isopropoxy-4-(4-methylpiperazin-1-yl)phenyl)pyrimidine-2,4-diamine] are > 1 µM and > 0.05 µM.
With `COc1cc(N2CCN(C)CC2)c(C)cc1Nc1ncc(Cl)c(Nc2cccnc2N2CCNC2=O)n1` [compound 9, 1-(3-((5-chloro-2-((2-methoxy-5-methyl-4-(4-methylpiperazin-1-yl)phenyl)amino)pyrimidin-4-yl)amino)pyridin-2-yl)imidazolidin-2-one], in assay [3], the “dose dependence of p-STAT5 decrease” value is recorded as “showed some dose dependence”. Also, the IC50 in assay [1] is < 0.15 µM; in assay [2] it was < 0.005 µM.
As for `CN1CCN(c2ccc(Nc3ncc(Cl)c(Nc4cccnc4N4CCCC4=O)n3)cc2)CC1` [compound 1, 1-(3-((5-chloro-2-((4-(4-methylpiperazin-1-yl)phenyl)amino)pyrimidin-4-yl)amino)pyridin-2-yl)pyrrolidin-2-one], the half-maximal inhibitory concentration (IC50) is < 0.15 µM in assay [1] and < 0.005 µM in assay [2].
